Assay results from US20230383261A1, “HEPATOCYTE-LIKE CELLS” (Sana Biotechnology, Inc., priority 2020, published 2023).
Values belong to the molecule of their own block, whether it stands above or below them.

How the values were obtained:
Format in all cases: cell-based, human
[1] = system: hepatocyte and urea cycle genes in hepatocyte-like cells; assay: qPCR expression of hepatocyte and urea cycle genes in iPSC-derived hepatocyte-like cells (Protocols A and B)
Protocol: (§1) Human iPSCs were differentiated to hepatocyte-like cells essentially as described in […] et al., Nature Prot. 8(2):430-437 (2013) (Protocol A) or Blackford et al., Stem Cells Transl Med. 8(2):124-137 (2019) (Protocol B) with the following modifications: cells were maintained in the final medium until a total culture time of 35 days and HepatoZYME basal medium was substituted in Protocol B starting at day 8. Forskolin was added to the final medium at a concentration of […] on day 21 (Protocol A) or day 28 (Protocols A and B). Expression of hepatocyte and urea cycle genes was measured by qPCR and/or fluorescent Western blot analysis. Ureagenesis of the cells was assayed using Urea Assay Kit (BioChain).

[2] = system: hepatocyte-specific genes and urea cycle enzyme genes; assay: gene expression in differentiation methods A, B and C with forskolin; conditions: forskolin at days 21-35 or 30-35 (3D) or days 28-35 (2D)
Protocol: This example provides urea cycle gene expression of hepatocyte-like cells differentiated using three different methods, such as a 3D differentiation method with forskolin treatment at days 21-35 (method A), a 3D differentiation method with forskolin treatment at days 30-35 (method B), and a 2D differentiation method with forskolin treatment at days 28-35 (method C). The expression of the following genes were measured: alpha fetoprotein (AFP), albumin (ALB), arginase 1 (ARG1), asialoglycoprotein receptor 1 (ASGR1), agininosuccinate lyase (ASL), argininosuccinate synthase 1 (ASS1), carbamoyl-phosphate synthase 1 (CPS1), glucose-6-phosphatase (G6PC), hepatocyte nuclear factor 4 alpha (HNF4a), keratin type I cytoskeletal 18 (KRT18), […] (NAGS), ornithine transcarbamylase (OTC), and SOX9. Expression of cardiac-specific markers NKX2.5 and TNNT2 were used as a negative expression control.
In this study, forskolin treatment was included at days 21-35 of the 3D hepatocyte differentiation process outlined above, at days 30-35 of the 3D hepatocyte differentiation process outlined above, or days 28-35 of the 2D hepatocyte differentiation process outlined above. Gene expression of numerous hepatocyte and urea cycle markers was measured at different time points.

[3] = system: hepatocyte maturation genes and urea cycle genes in hepatocyte-like cells; assay: Taqman qPCR gene expression, 3D differentiation protocol with or without forskolin; conditions: 10 μM forskolin days 28 to 35, vs untreated
Protocol: In the process, the pluripotent stem cells differentiate through different stages including a definitive endoderm stage, an anterior definitive endoderm stage, a foregut endoderm stage, a hepatic endoderm stage, an immature hepatocyte stage, and a mature hepatocyte stage. […] All pluripotent cell lines robustly differentiated in the endoderm lineage in the 3D format, with all cell lines achieving a target efficiency of 90% CXCR4 expressing cells. Gene expression analysis was performed on hepatocyte-like cells produced by either (i) a 3D differentiation protocol or (ii) a 3D differentiation protocol with the addition of 10 μM forskolin from days 28 to day 35. Duplicate RNA samples were isolated at selected time point of the differentiation and gene expression was analyzed by Taqman qPCR.

[4] = system: hepatocyte-like cells; assay: urea production assay at day 35, 2D differentiation with forskolin; conditions: forskolin about 5 μM to about 10 μM after the first 26 days, read at day 35
Protocol: Mature hepatocyte-like cells were differentiated from human pluripotent stem cells using a 2D differentiation protocol for the first 26 days of differentiation, and then the immature hepatocyte-like cells were cultured in media containing forskolin (ranging from about 5 μM to about 10 μM). At day 35, the activity for the hepatocytes was determined using a urea production assay.

[5] = system: hepatocyte-like cells; assay: ureagenesis after ammonia challenge (Urea Assay Kit); conditions: day 35, seven-day forskolin
Protocol: as §1, with “(BioChain). Ureagenesis activity was measured in day 35 cells from Protocol A and Protocol B following seven-day treatment with forskolin, following challenge of the hepatocyte-like cells with 0-16 mM ammonia. […] For Protocol A, ureagenesis activity peaked at stimulation with 5 mM ammonia treatment at about 20 nmol/min/10^6 cells, and levels were observed higher than those seen using primary human hepatocytes. For […], ureagenesis activity peaked at stimulation with 10 mM ammonia at a level similar to primary human hepatocytes, about 3 nmol/min/10^6 cells.” for “(BioChain).”

[6] = system: hPSC-Heps spheroids; conditions: for ammonia detoxification: media containing ammonia; for ammonia detoxification with excess arginine: media containing ammonia and arginine
Protocol: Human pluripotent stem cell-derived hepatocytes (hPSC-Heps) were obtained after 21 days of differentiation using a 2D adherent protocol. At day 21 the hPSC-Heps were aggregated into spheroids, and then encapsulated within alginate 48 hours later. The spheroids including the alginate encapsulated spheroids were cultured for 14 days in either vitamin K1, vitamin K2 MK4, […], vitamin E, or a combination of all. The spheroids were cultured at a concentration of about 1×10^6 encapsulated cells/ml for the culture period.

[7] = system: CYP3A4 activity in hepatocyte-like cells; assay: CYP3A4 enzyme activity assay of hepatocyte maturation, media with or without HGF; conditions: absence of HGF in the culture media after the first 14 days of 2D differentiation, vs media containing HGF
Protocol: Mature hepatocyte-like cells were differentiated from human pluripotent stem cells using a 2D differentiation protocol for the first 14 days of differentiation, and then the cells were cultured in media lacking recombinant HGF. At day 14, hepatocytes at the hepatic endoderm stage were dissociated and seeded into these plates in fully supplemented HepatoZYME-SFM media. 24 hours later the cells were cultured and maintained in media lacking recombinant HGF. Hepatocyte maturation was determined using a CYP3A4 enzyme activity assay.

expression of hepatocyte-like cell genes (HNF4a, AFP, ALB, ASGR1) ([1]; Protocol A, forskolin 10 mM in medium at days 21-28, vs cells without forskolin, qPCR): no significant effect
enhancement of hepatocyte-like cell gene (HNF4a, ALB, ASGR1) expression ([1]; Protocol B, forskolin 10 mM at days 28-35, read at day 35, vs cells without forskolin): 2-4 fold
expression of hepatocyte-specific and urea cycle enzyme genes including ALB, ARG1, ASGR1, ASL, CPS1, G6PC, HNF4a and/or NAGS [2]: increased expression
expression of hepatocyte maturation genes and urea cycle genes [3]: increases in expression
ureagenesis activity of the differentiated mature hepatocyte [4]: enhanced the ureagenesis activity
Molecule: C=C[C@@]1(C)CC(=O)[C@]2(O)[C@@]3(C)[C@@H](O)CCC(C)(C)[C@@H]3[C@H](O)[C@H](OC(C)=O)[C@@]2(C)O1 [forskolin]
increase in urea cycle gene CPS1 ([1]; Protocol A, forskolin 10 mM at days 21-28, vs cells without forskolin, qPCR): 5-8 fold
peak ureagenesis activity ([5]; Protocol A, stimulation with 5 mM ammonia, higher than primary human hepatocytes): about 20 nmol/min/10^6 cells
peak ureagenesis activity ([5]; printed Protocol A (second mention), stimulation with 10 mM ammonia, similar to primary human hepatocytes): about 3 nmol/min/10^6 cells

Molecule: CC1=C(C/C=C(\C)CCC[C@H](C)CCC[C@H](C)CCCC(C)C)C(=O)c2ccccc2C1=O [vitamin K1]
functional maturation status of the hepatocytes (urea synthesis) [6]: increased the functional maturation status
ammonia detoxification [6]: more effective at detoxifying ammonia
ammonia detoxification with excess arginine [6]: detoxified ammonia even faster

Molecule: CC(C)=CCC/C(C)=C/CC/C(C)=C/CC/C(C)=C/CC1=C(C)C(=O)c2ccccc2C1=O [vitamin K2 MK4]
functional maturation status of the hepatocytes (urea synthesis) [6]: increased the functional maturation status

Molecule: CC(C)=CCC/C(C)=C/CC/C(C)=C/CC/C(C)=C/CC/C(C)=C/CC/C(C)=C/CC/C(C)=C/CC1=C(C)C(=O)c2ccccc2C1=O [vitamin K2 MK7]
functional maturation status of the hepatocytes (urea synthesis) [6]: increased the functional maturation status

Molecule: CC(C)=CCC/C(C)=C/CC/C(C)=C/CC/C(C)=C/CC1=C(C)C(=O)c2ccccc2C1=O [vitamin K2]
ammonia detoxification [6]: more effective at detoxifying ammonia
ammonia detoxification with excess arginine [6]: detoxified ammonia even faster

Molecule: HGF: recombinant hepatocyte growth factor in culture media
hepatocyte maturation (CYP3A4 enzyme activity) [7]: enhanced hepatocyte maturation
